According to patent EP1247803A2, “Indolinone compounds suitable for modulation of protein kinases” (Sugen, Inc., priority 1996, dated 1998):

Legend:
EGFR = target: T1, EGFR (Homo sapiens, UniProt P00533); assay: EGFR ELISA assay (in vitro kinase activity, EGFR captured from A431 cell lysate); assay type: biochemical; set-up: concentration or dose not given beside the values
T1 construct: Add 7 ug A431 cell lysate per well (EGFR source); endogenous in cells; host or cells: A431
Source text: To provide a consistent method for measuring the in vitro kinase activity of the EGFR in an Enzyme-linked immunosorbent assay (Elisa).
Scope. The following protocol describes the procedures used to analyze protein tyrosine kinase activity on the EGFR in an Elisa. The procedure also describes the protocol for the initial screening of drugs for inhibition or activation of protein tyrosine kinase activity.
Reagents and Supplies. • 1. […] 05-101 monoclonal anti-EGFR antibody (commercially available from UB1) -80° C, 1 ml aliquots • 3. […] TBST Buffer Formulation: 50 mM Tris pH 7.2 150 mM NaCl 0.1% Triton X-100 • 5. Blocking Buffer Formulation: 5% Carnation Instant Milk in PBS • 6. A431 cell lysate A431 cells are available from a variety of commercial sources and may be used lysed using conventional methods known to those skilled in the art or as described for lysis of the 3T3 cells in the EGF cellular assay described herein. -80° C, 1 ml aliquots • 7. TBS Buffer Formulation: 50 mM Tris pH 7.2 150 mM NaCl • 8. […] NUNC 96-well V bottom polypropylene plates Applied Scientific Catalog # AS-72092 • 11. EDTA Formulation: 200 mM EDTA pH 8.0 • 12. […] Goat anti-rabbit IgG peroxidase conjugate Biosource Catalog # ALI0404 • 14. ABTS Solution Formulation: 100 mM Citric Acid (anhydrous) 250 mM Na2HPO4 pH 4.0 0.5 mg/ml ABTS (2,2'-azino-bis(3-ethylbenzthiazoline-6-sulfonic acid) (Sigma Catalog # A-1888) Keep solution in dark at 4 C until ready to use • 15. Hydrogen peroxide 30% solution Fisher Catalog # H325 Store in the dark at 4 C until ready to use • 16. ABTS/H2O2 Formulation: 15 mls ABTS solution 2 ul H2O2 Prepare 5 minutes before use and room temperature • 17. 0.2 M HCL stock in H2O Procedure. • 1. Coat Corning 96-well elisa plates with 0.5 ug per well 05-101 antibody. Bring final volume to 100 ul per well with PBS. Coat plates overnight at 4° C. • 2. Remove unbound 05-101 from wells by inverting plate to remove liquid. Wash 1x with distilled H2O by filling wells Pat the plate on a paper towel to remove excess liquid. • 3. Block plates with 5% milk in PBS. 150 ul per well. Incubate plate 30 minutes while shaking on a microtiter plate shaker. • 4. Wash plate 3x with dionized water, then once with TBST • 5. Add 7 ug A431 cell lysate per well (EGFR source). Add PBS to final volume of 100 ul per well Incubate 30 minutes while shaking. • 6. Wash as described in step 4. • 7. At this point, drugs or extracts are added to the wells. Dilute drugs/extracts 1:100 (unless specified otherwise) in TBS + 10% DMSO in 96-well polypropylene plates. Add 120 ul TBS to ELISA plate containing captured EGFR. Add 13.5 ul diluted drugs/extracts to ELISA plate. […] Incubate plate 30 minutes while shaking. • 8. […] (150 ul final volume in well with 3 uM ATP/5 mM MnCl2 final concentration in well.) Incubate 5 minutes while shaking vigorously. *NOTE: It is critical that ATP/MnCl2 phosphorylates the receptor for 5 minutes only. It is best to add the ATP/MnCl2 with an 12 channel pipettor 1 row at a time leaving 20 seconds between each row so that the reaction may be stopped with EDTA exactly 5 minutes later (this depends on the number of plates being phosphorylated in one batch). Shake between each addition. • 9. After 5 minutes, to stop reaction, add 16.5 ul of 200 mM EDTA pH 8.0 for 20 mM final in well, shaking continuously between each addition. This is done using the same timing method as above. After last row has received EDTA, shake plate an additional minute. • 10. Wash 4x with deionized water, twice with TBST. • 11. Add rabbit polyclonal anti-phosphotyrosine serum. Dilute 1:3000 in TBST. Add 100 ul per well. Incubate 30-45 minutes while shaking. • 12. Wash as described above in step 4. • 13. Add BioSource anti-rabbit peroxidase conjugate antibody. Dilute 1:2000 in TBST. Add 100 ul per well. Incubate 30 minutes while shaking. • 14. Wash as described in step 4. • 15. Add 100 ul of ABTS/H2O2 solution to well. Incubate 5 to 10 minutes while shaking. Remove bubbles • 16. […]

PDGF-R = PDGF-R (Homo sapiens, UniProt P09619); assay: PDGF-R ELISA; assay type: cell-based
PDGF-R, sequence (P09619 33-1106, species assumed): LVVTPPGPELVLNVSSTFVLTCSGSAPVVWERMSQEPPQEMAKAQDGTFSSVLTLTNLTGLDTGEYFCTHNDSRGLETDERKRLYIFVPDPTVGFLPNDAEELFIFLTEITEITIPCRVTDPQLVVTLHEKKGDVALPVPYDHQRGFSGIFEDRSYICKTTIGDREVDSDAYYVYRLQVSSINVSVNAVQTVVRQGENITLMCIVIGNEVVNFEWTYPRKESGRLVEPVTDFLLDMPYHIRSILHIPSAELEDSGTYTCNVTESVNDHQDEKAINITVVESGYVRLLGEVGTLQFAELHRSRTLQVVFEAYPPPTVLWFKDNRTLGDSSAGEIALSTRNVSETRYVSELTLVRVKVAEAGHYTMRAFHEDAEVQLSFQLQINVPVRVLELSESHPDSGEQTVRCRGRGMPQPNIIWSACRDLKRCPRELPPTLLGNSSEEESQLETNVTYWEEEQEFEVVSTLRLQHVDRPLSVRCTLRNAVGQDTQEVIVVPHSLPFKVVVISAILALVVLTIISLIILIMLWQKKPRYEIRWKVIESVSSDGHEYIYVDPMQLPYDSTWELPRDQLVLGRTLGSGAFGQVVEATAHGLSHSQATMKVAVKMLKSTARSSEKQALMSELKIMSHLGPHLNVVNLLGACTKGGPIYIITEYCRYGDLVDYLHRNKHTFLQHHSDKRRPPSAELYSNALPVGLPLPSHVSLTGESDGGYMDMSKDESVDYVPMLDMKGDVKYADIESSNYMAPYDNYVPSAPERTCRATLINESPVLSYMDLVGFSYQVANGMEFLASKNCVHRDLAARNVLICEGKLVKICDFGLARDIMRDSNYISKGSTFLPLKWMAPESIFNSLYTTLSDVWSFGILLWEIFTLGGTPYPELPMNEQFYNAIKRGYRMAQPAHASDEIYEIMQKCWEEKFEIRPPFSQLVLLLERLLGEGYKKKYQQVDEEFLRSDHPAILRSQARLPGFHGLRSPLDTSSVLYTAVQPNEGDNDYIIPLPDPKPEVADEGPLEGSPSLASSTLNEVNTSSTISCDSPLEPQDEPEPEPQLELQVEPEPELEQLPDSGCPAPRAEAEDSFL
Source text: A PDGF-R ELISA is described in International Patent Publication No. WO 96/40116, published December 19, 1996 by Tang et al.

T1 sequence (P00533 25-1210): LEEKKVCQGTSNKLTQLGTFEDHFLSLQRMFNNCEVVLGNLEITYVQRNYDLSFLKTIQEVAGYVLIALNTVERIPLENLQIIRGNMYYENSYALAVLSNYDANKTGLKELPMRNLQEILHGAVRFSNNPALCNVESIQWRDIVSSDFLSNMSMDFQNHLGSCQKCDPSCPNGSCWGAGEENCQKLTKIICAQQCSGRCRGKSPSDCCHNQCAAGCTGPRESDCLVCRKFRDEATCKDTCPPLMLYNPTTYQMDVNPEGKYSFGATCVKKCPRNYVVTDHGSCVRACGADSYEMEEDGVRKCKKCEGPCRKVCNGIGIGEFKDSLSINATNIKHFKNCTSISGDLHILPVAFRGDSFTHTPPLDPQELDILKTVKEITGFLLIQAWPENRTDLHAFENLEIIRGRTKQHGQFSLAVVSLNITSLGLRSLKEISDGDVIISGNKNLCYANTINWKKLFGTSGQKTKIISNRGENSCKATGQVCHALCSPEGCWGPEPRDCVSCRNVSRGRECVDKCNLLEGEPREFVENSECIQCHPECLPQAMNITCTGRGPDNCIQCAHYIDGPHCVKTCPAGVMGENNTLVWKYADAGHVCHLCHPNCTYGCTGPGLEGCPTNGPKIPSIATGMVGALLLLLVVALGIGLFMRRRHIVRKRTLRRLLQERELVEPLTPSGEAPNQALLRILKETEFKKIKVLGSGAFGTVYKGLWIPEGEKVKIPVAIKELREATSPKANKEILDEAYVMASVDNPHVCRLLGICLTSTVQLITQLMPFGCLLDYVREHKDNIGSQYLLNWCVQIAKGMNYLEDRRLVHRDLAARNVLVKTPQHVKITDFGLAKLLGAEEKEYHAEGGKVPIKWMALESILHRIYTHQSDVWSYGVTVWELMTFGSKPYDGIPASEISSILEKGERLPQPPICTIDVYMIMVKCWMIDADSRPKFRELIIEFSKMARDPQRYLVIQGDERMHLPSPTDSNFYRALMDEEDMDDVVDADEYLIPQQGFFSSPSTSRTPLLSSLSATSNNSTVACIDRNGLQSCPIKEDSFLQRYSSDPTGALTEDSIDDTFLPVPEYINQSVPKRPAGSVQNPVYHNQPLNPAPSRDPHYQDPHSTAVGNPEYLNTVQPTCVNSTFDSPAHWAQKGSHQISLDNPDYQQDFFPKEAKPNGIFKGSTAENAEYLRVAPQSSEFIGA

SMILES	Biochem EGFR %Inhibition (EGFR)	PDGF Kinase %Inhibition (PDGF-R)
Cc1c(Br)ccc2c1C(=Cc1ccco1)C(=O)N2 [10718/C10]	-18.7%	–
Cc1c(Br)ccc2c1C(=Cc1ccc([N+](=O)[O-])o1)C(=O)N2 [10718/C11]	-0.2%	–
CCOC(=O)c1c(C)[nH]c(C=C2C(=O)Nc3ccc(S(=O)(=O)NC)cc32)c1C [10718/D02]	14.4%	–
CNS(=O)(=O)c1ccc2c(c1)C(=Cc1cc(OC)cc(Br)c1O)C(=O)N2 [10718/D03]	61.9%	–
CNS(=O)(=O)c1ccc2c(c1)C(=Cc1ccc3ccccc3c1O)C(=O)N2 [10718/D04]	52.0%	–
CCOC(=O)CCc1c(C(=O)OCC)[nH]c(C=C2C(=O)Nc3ccc(S(=O)(=O)NC)cc32)c1CC(=O)OCC [10718/D05]	2.8%	–
CCOC(=O)c1cc(C=C2C(=O)Nc3ccc(S(=O)(=O)NC)cc32)oc1C [10718/D06]	20.0%	–
C=C(C)C1CC=C(C=C2C(=O)Nc3ccc(S(=O)(=O)NC)cc32)CC1 (stereo not drawn) [10731/D04]	15.8%	6.5%
CNS(=O)(=O)c1ccc2c(c1)C(=Cc1coc3ccc(C(C)C)cc3c1=O)C(=O)N2 [10731/D05]	53.9%	46.0%
CNS(=O)(=O)c1ccc2c(c1)C(=Cc1coc3ccc(C)cc3c1=O)C(=O)N2 [10731/D06]	23.2%	8.0%
CNS(=O)(=O)c1ccc2c(c1)C(=Cc1coc3ccc([N+](=O)[O-])cc3c1=O)C(=O)N2 [10731/D07]	25.9%	2.7%
CNS(=O)(=O)c1ccc2c(c1)C(=Cc1c[nH]c(=O)[nH]c1=O)C(=O)N2 [10731/D08]	16.8%	-8.7%
CNS(=O)(=O)c1ccc2c(c1)C(=Cc1c[nH]c3ccc(OC)cc13)C(=O)N2 [10731/D09]	12.6%	-2.0%
CNS(=O)(=O)c1ccc2c(c1)C(=C1C(=O)N(C)c3ccccc31)C(=O)N2 [10731/D10]	15.8%	9.9%
CCn1c2ccccc2c2cc(C=C3C(=O)Nc4ccc(S(=O)(=O)Nc5ccc(C(F)(F)F)cc5)cc43)ccc21 [10731/E02]	7.9%	13.7%
Cc1cc2occ(C=C3C(=O)Nc4ccc(S(=O)(=O)Nc5ccc(C(F)(F)F)cc5)cc43)c(=O)c2cc1C [10731/E03]	10.4%	15.6%
C=C(C)C1CC=C(C=C2C(=O)Nc3ccc(S(=O)(=O)Nc4ccc(C(F)(F)F)cc4)cc32)CC1 (stereo not drawn) [10731/E04]	13.6%	30.8%
CC(C)c1ccc2occ(C=C3C(=O)Nc4ccc(S(=O)(=O)Nc5ccc(C(F)(F)F)cc5)cc43)c(=O)c2c1 [10731/E05]	17.7%	27.0%

SMILES	Biochem EGFR %Inhibition (EGFR)	PDGF Kinase %Inhibition (PDGF-R)
Cc1ccc2occ(C=C3C(=O)Nc4ccc(S(=O)(=O)Nc5ccc(C(F)(F)F)cc5)cc43)c(=O)c2c1 [10731/E06]	10.4%	-12.0%
O=C1Nc2ccc(S(=O)(=O)Nc3ccc(C(F)(F)F)cc3)cc2C1=Cc1coc2ccc([N+](=O)[O-])cc2c1=O [10731/E07]	38.4%	3.7%
O=C1Nc2ccc(S(=O)(=O)Nc3ccc(C(F)(F)F)cc3)cc2C1=Cc1c[nH]c(=O)[nH]c1=O [10731/E08]	40.1%	8.9%
COc1ccc2[nH]cc(C=C3C(=O)Nc4ccc(S(=O)(=O)Nc5ccc(C(F)(F)F)cc5)cc43)c2c1 [10731/E09]	17.2%	23.2%
CN1C(=O)C(=C2C(=O)Nc3ccc(S(=O)(=O)Nc4ccc(C(F)(F)F)cc4)cc32)c2ccccc21 [10731/E10]	25.1%	21.7%
CCn1c2ccccc2c2cc(C=C3C(=O)Nc4ccc(S(=O)(=O)N5CCOCC5)cc43)ccc21 [10731/F02]	17.7%	14.1%
Cc1cc2occ(C=C3C(=O)Nc4ccc(S(=O)(=O)N5CCOCC5)cc43)c(=O)c2cc1C [10731/F03]	8.4%	11.8%
C=C(C)C1CC=C(C=C2C(=O)Nc3ccc(S(=O)(=O)N4CCOCC4)cc32)CC1 (stereo not drawn) [10731/F04]	5.0%	3.2%
CC(C)c1ccc2occ(C=C3C(=O)Nc4ccc(S(=O)(=O)N5CCOCC5)cc43)c(=O)c2c1 [10731/F05]	19.5%	20.3%
Cc1ccc2occ(C=C3C(=O)Nc4ccc(S(=O)(=O)N5CCOCC5)cc43)c(=O)c2c1 [10731/F06]	7.2%	-23.4%
O=C1Nc2ccc(S(=O)(=O)N3CCOCC3)cc2C1=Cc1coc2ccc([N+](=O)[O-])cc2c1=O [10731/F07]	37.7%	1.3%
O=C1Nc2ccc(S(=O)(=O)N3CCOCC3)cc2C1=Cc1c[nH]c(=O)[nH]c1=O [10731/F08]	7.1%	4.1%
COc1ccc2[nH]cc(C=C3C(=O)Nc4ccc(S(=O)(=O)N5CCOCC5)cc43)c2c1 [10731/F09]	-0.7%	15.6%
CN1C(=O)C(=C2C(=O)Nc3ccc(S(=O)(=O)N4CCOCC4)cc32)c2ccccc21 [10731/F10]	7.9%	28.4%
CCn1c2ccccc2c2cc(C=C3C(=O)Nc4ccc(CCCl)cc43)ccc21 [10731/G02]	4.7%	-10.1%
Cc1cc2occ(C=C3C(=O)Nc4ccc(CCCl)cc43)c(=O)c2cc1C [10731/G03]	7.7%	6.5%
C=C(C)C1CC=C(C=C2C(=O)Nc3ccc(CCCl)cc32)CC1 (stereo not drawn) [10731/G04]	7.1%	0.3%
